Reference: article PMC3882073 (European neuropsychopharmacology : the journal of the …, 2012)
Where a name gives a salt, the structure may show the parent alone.

Columns and labels:
[1] = tested on: AMPH-induced DA release in striatum; experiment: Amphetamine; format: in vivo, rat
[2] = tested on: AMPH-induced DA release in prefrontal cortex (PFC); experiment: Amphetamine; format: in vivo, rat
[3] = tested on: basal dopamine (DA) levels in prefrontal cortex (PFC); experiment: Basal dopamine levels in PFC, in vivo microdialysis; parameters: species or system rat
[4] = tested on: psychotomimetic effects of ketamine; conditions: ref D’Souza et al., 2012, cited from earlier work
[5] = experiments involving Org25935 and DCS

Question: Which results are given for N[C@@H]1CON=C1O [DCS, D-cycloserine]?
Answer: Effect of drug treatment on AMPH-induced DA release in striatum [1, 5]: no significant effects; Effect on AMPH-induced DA release in PFC ([2]; DCS 30 mg/kg ip per day 2 weeks, 60–210 min time period): significantly reduced AMPH-induced DA release; Effect on AMPH-induced DA release in PFC ([2]; DCS 30 mg/kg ip per day 2 weeks, in the absence of PCP): no significant effect on AMPH-induced DA release; Effect on PCP-induced enhancement of DA release in prefrontal cortex ([2]; summary statement (abstract)): significantly reduced PCP-induced enhancement of DA release in prefrontal cortex; Effect on basal DA levels ([3]; DCS 30 mg/kg ip per day 2 weeks): no significant effect on basal DA levels

Question: With NCC(=O)O [Glycine] as the compound, how does the “Effect on AMPH-induced DA release in PFC” value ([2]; in the presence of PCP, glycine 16% by diet 2 weeks, positive control, 60–210 min) read?
Answer: The value was “significantly reduced DA release”.

Question: Which results are given for COc1ccc2c(c1)CC[C@H](CN(C)CC(=O)O)[C@@H]2c1ccccc1 [Org25935]?
Answer: Total symptoms induced by ketamine ([4]; acute challenge study): reversed; Acute psychotomimetic effects of ketamine ([4]; healthy volunteers): reverse acute psychotomimetic effects of ketamine; Safety in human use ([4]; humans): safe in human use; Effect of drug treatment on AMPH-induced DA release in striatum [1, 5]: no significant effects; Effect on AMPH-induced DA release in PFC ([2]; Org25935 5 mg, in the absence of PCP): no significant effect on AMPH-induced DA release; Effect on AMPH-induced DA release in PFC ([2]; Org25935 5 mg, in the presence of PCP vs PCP alone, 60–210 min): did not significantly reduced AMPH-induced DA release; Effect on AMPH-induced DA release in PFC ([2]; Org25935 10 mg, in the absence of PCP): no significant effect on AMPH-induced DA release; Effect on AMPH-induced DA release in PFC ([2]; Org25935 10 mg, in the presence of PCP vs PCP alone, 60–210 min): effective; Effect on AMPH-induced DA release in PFC ([2]; Org25935, across doses, entire 0–210 min interval): significantly inhibited AMPH-induced DA release; Effect on basal DA levels ([3]; Org25935 5 mg/kg, across control and PCP treatment conditions, post-hoc LSD): significant increase in basal DA levels; Effect on basal DA levels ([3]; Org25935 10 mg/kg, across control and PCP treatment conditions, post-hoc LSD): non-significant decrease

Question: Which “Effect of PCP on AMPH-induced DA release in striatum” value [1, 5] does the source give for c1ccc(C2(N3CCCCC3)CCCCC2)cc1 [PCP, Phencyclidine hydrochloride] here?
Answer: Its value is “no significant effects”.

Question: And the “Effect on striatal DA release” value ([1]; summary statement (abstract))?
Answer: Its value is “Neither PCP nor GTIs significantly affected striatal DA release”.

Question: What about the “Effect of PCP on AMPH-induced DA release in PFC” value ([2]; Org25935 experiments, PCP 15 mg/kg/d, 0–210 min after AMPH 1 mg/kg sc) of the same compound?
Answer: Its value is “significantly increased AMPH-induced DA release”.

Question: What about the “Mean basal dopamine (DA) levels in PFC” value ([3]; Org25935 experiments, PCP 15 mg/kg/d minipump alone (vehicle), mean ± std dev) of the same compound?
Answer: The value was 1.03 ± .80 (16) pg/10 μl.

Question: What about the “Effect on basal DA levels” value ([3]; PCP 15 mg/kg/d, experiments involving Org25935) of the same compound?
Answer: The value was “no significant effect on basal DA levels”.

Question: What about the “Effect of treatment on basal DA levels” value ([3]; R231857/60 experiments, rmANOVA) of the same compound?
Answer: Its value is “Neither PCP (F1,49=.2, p=.6) nor R231857/R231860 (F3,49=.5, p=.7) treatment significantly altered basal DA levels”.
